Reference: ChEMBL document CHEMBL6092178, “Discovery of a novel KV7.2/7.3 channels agonist for the treatment of neuropathic pain” (Eur J Med Chem, 2024)
Activity calls are given as the source filed them.

Legend:
[1] = biological target: Voltage-gated potassium channel, KQT; KCNQ2(Kv7.2)/KCNQ3(Kv7.3) (Homo sapiens, UniProt O43525+O43526); test: Agonist activity at human KCNQ2/3 transfected in human HEK293 cells incubated for 30 mins by fluorimetric assay; format: cell-based
[2] = test system: Rattus norvegicus; test: Antinociceptive activity against formalin-induced pain in male Sprague-Dawley rat assessed as reduction in nociceptive response at 40 mg/kg, IG pretreated for 5 mins followed by formalin challenge and measured for first 9 mins (phase I); format: functional, organism-based; settings: time 14.0 min
[3] = test system: Rattus norvegicus; test: Antinociceptive activity against formalin-induced pain in male Sprague-Dawley rat assessed as reduction in nociceptive response at 40 mg/kg, IG pretreated for 5 mins followed by formalin challenge and measured for 10 to 60 mins (phase II); format: functional, organism-based; settings: time 15-65 min
[4] = test system: Rattus norvegicus; test: Antiallodynic activity in spinal nerve ligation-induced neuropathic pain male Sprague-Dawley rat model assessed as mechanical withdrawal threshold at 40 mg/kg, IG pretreated with compound for 1 hr and measured on day 15 after surgery; format: functional, organism-based; settings: time 15.0 day
[5] = test system: Mus musculus; test: Induction of motor coordination impairment in mouse at 20 mg/kg, IG measured upto 120 mins by rotarod method; format: functional, organism-based

Sequence of Voltage-gated potassium channel, KQT; KCNQ2(Kv7.2)/KCNQ3(Kv7.3) (O43526 whole entry): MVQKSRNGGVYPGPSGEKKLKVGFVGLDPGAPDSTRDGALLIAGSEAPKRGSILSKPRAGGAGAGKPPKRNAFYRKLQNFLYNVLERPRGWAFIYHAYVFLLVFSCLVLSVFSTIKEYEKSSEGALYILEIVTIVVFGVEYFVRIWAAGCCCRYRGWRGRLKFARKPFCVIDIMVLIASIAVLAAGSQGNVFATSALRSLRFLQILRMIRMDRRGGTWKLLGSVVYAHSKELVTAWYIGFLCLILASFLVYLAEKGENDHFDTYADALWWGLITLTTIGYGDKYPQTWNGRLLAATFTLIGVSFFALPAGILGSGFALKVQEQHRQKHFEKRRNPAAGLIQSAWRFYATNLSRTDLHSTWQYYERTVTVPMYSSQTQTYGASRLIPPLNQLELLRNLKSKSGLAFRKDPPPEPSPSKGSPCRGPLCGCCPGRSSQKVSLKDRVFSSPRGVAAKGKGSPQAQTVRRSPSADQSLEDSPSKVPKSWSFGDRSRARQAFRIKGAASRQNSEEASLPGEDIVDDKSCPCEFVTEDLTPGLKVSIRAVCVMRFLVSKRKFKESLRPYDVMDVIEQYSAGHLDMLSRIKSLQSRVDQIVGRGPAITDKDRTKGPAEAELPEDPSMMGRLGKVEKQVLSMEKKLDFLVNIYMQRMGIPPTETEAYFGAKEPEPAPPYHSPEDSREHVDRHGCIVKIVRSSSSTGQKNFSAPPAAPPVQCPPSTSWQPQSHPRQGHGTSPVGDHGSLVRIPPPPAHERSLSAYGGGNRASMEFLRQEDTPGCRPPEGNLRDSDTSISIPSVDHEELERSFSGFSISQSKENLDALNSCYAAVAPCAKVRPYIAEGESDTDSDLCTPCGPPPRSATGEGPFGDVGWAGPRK
Sequence of Voltage-gated potassium channel, KQT; KCNQ2(Kv7.2)/KCNQ3(Kv7.3) (O43525 whole entry): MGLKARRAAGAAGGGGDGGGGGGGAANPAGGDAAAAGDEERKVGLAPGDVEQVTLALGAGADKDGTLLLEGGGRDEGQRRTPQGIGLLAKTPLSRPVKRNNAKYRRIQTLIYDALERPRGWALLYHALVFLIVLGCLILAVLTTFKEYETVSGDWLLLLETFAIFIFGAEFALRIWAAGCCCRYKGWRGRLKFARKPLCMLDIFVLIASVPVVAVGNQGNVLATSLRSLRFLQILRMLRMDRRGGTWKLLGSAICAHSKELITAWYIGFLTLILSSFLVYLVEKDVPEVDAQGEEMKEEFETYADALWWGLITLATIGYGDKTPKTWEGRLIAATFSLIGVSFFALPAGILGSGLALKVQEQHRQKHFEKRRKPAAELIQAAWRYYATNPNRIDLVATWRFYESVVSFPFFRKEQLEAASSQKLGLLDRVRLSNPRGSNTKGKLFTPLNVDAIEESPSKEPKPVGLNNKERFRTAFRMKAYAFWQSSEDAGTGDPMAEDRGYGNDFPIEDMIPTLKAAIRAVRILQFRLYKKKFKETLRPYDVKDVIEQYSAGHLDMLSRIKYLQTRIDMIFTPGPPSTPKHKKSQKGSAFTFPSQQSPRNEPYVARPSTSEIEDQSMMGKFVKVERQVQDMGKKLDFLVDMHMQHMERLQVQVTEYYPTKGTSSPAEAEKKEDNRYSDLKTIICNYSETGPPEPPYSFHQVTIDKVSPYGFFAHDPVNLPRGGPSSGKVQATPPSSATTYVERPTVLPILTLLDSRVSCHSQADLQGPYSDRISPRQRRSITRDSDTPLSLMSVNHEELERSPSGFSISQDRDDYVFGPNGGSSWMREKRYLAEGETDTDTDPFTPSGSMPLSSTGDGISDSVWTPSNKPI

SMILES	EC50 [1]	also measured
CCOC(=O)Nc1nc(OCc2ccc(F)cc2)ccc1N	12.1 µM	–
CC(=O)Nc1nc(OCCc2ccc(F)cc2)ccc1N	9.39 µM	–
CC(=O)Nc1nc(OCc2ccc(-c3ccccc3)cc2)ccc1N	131 µM	–
Nc1ccc(OCc2ccc(F)cc2)cc1NC(=O)C1CC1	30.3 µM	–
CC(=O)Nc1nc(OC(C)c2ccc(F)cc2)ccc1N (stereo unspecified)	18.9 µM	–
CC(C)C[C@H](CN)CC(=O)O	–	Activity [2]: inactive; Activity [3]: Active; Activity [4]: Active; Activity [5]: inactive
CC(=O)Nc1nc(OCc2ccc(C(F)(F)F)cc2)ccc1N	8.9 µM	–
CC(=O)Nc1nc(OCc2ccc3ccccc3c2)ccc1N	189 µM	–
Nc1ccc(OCc2ccc(F)cc2)nc1N1CCCC1=O	12.7 µM	–
COc1cccc(COc2ccc(N)c(NC(C)=O)n2)c1	30.3 µM	–
CC(=O)Nc1nc(OCc2ccc3c(c2)OCO3)ccc1N	128 µM	–
CCOC(=O)Nc1ccc(OCc2ccc(F)cc2)nc1NC(C)=O	6.19 µM	–
CC(=O)Nc1ccc(OCc2ccc(F)cc2)nc1NC(C)=O	7.61 µM	–
